Our source for the IC50 values is patent US20070004660A1, “Synergistic Modulation of Flt3 Kinase Using Alkylquinolines and Alkylquinazolines” (priority 2005, published 2007).

In this test the test system is MV4-11 cells. Nature of the test: Inhibition of MV4-11 cell proliferation (CellTiterGlo, 72 h). The test is classed as cell-based. Conditions: Homo sapiens; 72 h growth inhibition; uncertainty ±20%.

As usually defined, the IC50 is the concentration needed to halve the response being measured.

As to `CN1CCN(c2ccc3c(C4CCN(C(=O)Nc5ccc(N6CCCC6)nc5)CC4)ncnc3c2)CC1` [Example 160, 4-[7-(4-Methyl-piperazin-1-yl)-quinazolin-4-yl]-piperidine-1-carboxylic acid (6-pyrrolidin-1-yl-pyridin-3-yl)-amide], the IC50 came to 67 nM.

For `O=C(Nc1ccc(N2CCCC2)cc1)N1CCC(c2ncnc3cc(OCCCN4CCC[C@H]4CO)ccc23)CC1` [Example 161, (S)-4-{7-[3-(2-Hydroxymethyl-pyrrolidin-1-yl)-propoxy]-quinazolin-4-yl}-piperidine-1-carboxylic acid (4-pyrrolidin-1-yl-phenyl)-amide], half-maximal inhibition (IC50) was put at 13 nM. The figure for `CC(=O)N1CCC[C@H]1COc1ccc2c(C3CCN(C(=O)Nc4ccc(N5CCCC5)cc4)CC3)ncnc2c1` [Example 162, (S)-4-[7-(1-Acetyl-pyrrolidin-2-ylmethoxy)-quinazolin-4-yl]-piperidine-1-carboxylic acid (4-pyrrolidin-1-yl-phenyl)-amide] is 46 nM; for `CC(=O)N1CCC(COc2ccc3c(C4CCN(C(=O)Nc5ccc(N6CCCC6)cc5)CC4)ncnc3c2)CC1` [Example 163, 4-[7-(1-Acetyl-piperidin-4-ylmethoxy)-quinazolin-4-yl]-piperidine-1-carboxylic acid (4-pyrrolidin-1-yl-phenyl)-amide] it is 20 nM. In turn, `CS(=O)(=O)N1CCN(CCCOc2ccc3c(C4CCN(C(=O)Nc5ccc(N6CCCC6)cc5)CC4)ncnc3c2)CC1` [Example 164, 4-{7-[3-(4-Methanesulfonyl-piperazin-1-yl)-propoxy]-quinazolin-4-yl}-piperidine-1-carboxylic acid (4-pyrrolidin-1-yl-phenyl)-amide] registered a half-maximal inhibitory concentration (IC50) of 36 nM. As for `CN(C)C(=O)N1CCN(CCCOc2ccc3c(C4CCN(C(=O)Nc5ccc(N6CCCC6)cc5)CC4)ncnc3c2)CC1` [Example 165, 4-(3-{4-[1-(4-Pyrrolidin-1-yl-phenylcarbamoyl)-piperidin-4-yl]-quinazolin-7-yloxy}-propyl)-piperazine-1-carboxylic acid dimethylamide], the IC50 came out at 18 nM.

`CC(=O)N1CCN(c2ccc3c(C4CCN(C(=O)Nc5ccc(N6CCCC6)cc5)CC4)ncnc3c2)CC1` [Example 166, 4-[7-(4-Acetyl-piperazin-1-yl)-quinazolin-4-yl]-piperidine-1-carboxylic acid (4-pyrrolidin-1-yl-phenyl)-amide] came in with an IC50 of 17 nM. The IC50 values of the last two compounds are within 1.5-fold of each other. The figure for `CS(=O)(=O)N1CCN(c2ccc3c(C4CCN(C(=O)Nc5ccc(N6CCCC6)cc5)CC4)ncnc3c2)CC1` [Example 167, 4-[7-(4-Methanesulfonyl-piperazin-1-yl)-quinazolin-4-yl]-piperidine-1-carboxylic acid (4-pyrrolidin-1-yl-phenyl)-amide] is 21 nM.

As for `O=C(Nc1ccc(N2CCCC2)cc1)N1CCC(c2ncnc3cc(OCCO)ccc23)CC1` [Example 169, 4-[7-(2-Hydroxy-ethoxy)-quinazolin-4-yl]-piperidine-1-carboxylic acid (4-pyrrolidin-1-yl-phenyl)-amide], 32 nM corresponded to half-maximal inhibition (IC50). `CC(=O)N1CC(Oc2ccc3c(C4CCN(C(=O)Nc5ccc(N6CCCC6)cc5)CC4)ncnc3c2)C1` [Example 170, 4-[7-(1-Acetyl-azetidin-3-yloxy)-quinazolin-4-yl]-piperidine-1-carboxylic acid (4-pyrrolidin-1-yl-phenyl)-amide]: the half-inhibitory concentration (IC50) was 97 nM. This IC50 lies about 3-fold higher than the previous one. The figure for `CS(=O)(=O)N1CC(Oc2ccc3c(C4CCN(C(=O)Nc5ccc(N6CCCC6)cc5)CC4)ncnc3c2)C1` [Example 171, 4-[7-(1-Methanesulfonyl-azetidin-3-yloxy)-quinazolin-4-yl]-piperidine-1-carboxylic acid (4-pyrrolidin-1-yl-phenyl)-amide] is 185 nM; for `O=C(COc1ccc2c(C3CCN(C(=O)Nc4ccc(N5CCCC5)cc4)CC3)ncnc2c1)N1CCOCC1` [Example 172, 4-[7-(2-Morpholin-4-yl-2-oxo-ethoxy)-quinazolin-4-yl]-piperidine-1-carboxylic acid (4-pyrrolidin-1-yl-phenyl)-amide] it is 248 nM. The figure for `O=C(Nc1ccc(N2CCCC2)cc1)N1CCC(c2ncnc3cc(N4CCC4)ccc23)CC1` [Example 173, 4-(7-Azetidin-1-yl-quinazolin-4-yl)-piperidine-1-carboxylic acid (4-pyrrolidin-1-yl-phenyl)-amide] is 16 nM. The figure for `O=C(Nc1ccc(N2CCCC2)cc1)N1CCC(c2ncnc3cc(Oc4cccnc4)ccc23)CC1` [Example 174, 4-[7-(Pyridin-3-yloxy)-quinazolin-4-yl]-piperidine-1-carboxylic acid (4-pyrrolidin-1-yl-phenyl)-amide] is 214 nM; for `O=C(Nc1ccc(N2CCCC2)cc1)N1CCC(c2ncnc3cc(NCCO)ccc23)CC1` [Example 175, 4-[7-(2-Hydroxy-ethylamino)-quinazolin-4-yl]-piperidine-1-carboxylic acid (4-pyrrolidin-1-yl-phenyl)-amide] it is 18 nM; for `O=C(Nc1ccc(N2CCCC2)cc1)N1CCC(c2ncnc3cc(N4CCOC4=O)ccc23)CC1` [Example 176, 4-[7-(2-Oxo-oxazolidin-3-yl)-quinazolin-4-yl]-piperidine-1-carboxylic acid (4-pyrrolidin-1-yl-phenyl)-amide] it is 8 nM.
